In the Kinase Knowledgebase extract (Sharma et al. 2016):

Biological target: PIK3CG (human) (UniProt P48736)
Test: Assessment of PIK3CG Kinase Activity

Chain of PIK3CG (human) (P48736 whole entry, looked up): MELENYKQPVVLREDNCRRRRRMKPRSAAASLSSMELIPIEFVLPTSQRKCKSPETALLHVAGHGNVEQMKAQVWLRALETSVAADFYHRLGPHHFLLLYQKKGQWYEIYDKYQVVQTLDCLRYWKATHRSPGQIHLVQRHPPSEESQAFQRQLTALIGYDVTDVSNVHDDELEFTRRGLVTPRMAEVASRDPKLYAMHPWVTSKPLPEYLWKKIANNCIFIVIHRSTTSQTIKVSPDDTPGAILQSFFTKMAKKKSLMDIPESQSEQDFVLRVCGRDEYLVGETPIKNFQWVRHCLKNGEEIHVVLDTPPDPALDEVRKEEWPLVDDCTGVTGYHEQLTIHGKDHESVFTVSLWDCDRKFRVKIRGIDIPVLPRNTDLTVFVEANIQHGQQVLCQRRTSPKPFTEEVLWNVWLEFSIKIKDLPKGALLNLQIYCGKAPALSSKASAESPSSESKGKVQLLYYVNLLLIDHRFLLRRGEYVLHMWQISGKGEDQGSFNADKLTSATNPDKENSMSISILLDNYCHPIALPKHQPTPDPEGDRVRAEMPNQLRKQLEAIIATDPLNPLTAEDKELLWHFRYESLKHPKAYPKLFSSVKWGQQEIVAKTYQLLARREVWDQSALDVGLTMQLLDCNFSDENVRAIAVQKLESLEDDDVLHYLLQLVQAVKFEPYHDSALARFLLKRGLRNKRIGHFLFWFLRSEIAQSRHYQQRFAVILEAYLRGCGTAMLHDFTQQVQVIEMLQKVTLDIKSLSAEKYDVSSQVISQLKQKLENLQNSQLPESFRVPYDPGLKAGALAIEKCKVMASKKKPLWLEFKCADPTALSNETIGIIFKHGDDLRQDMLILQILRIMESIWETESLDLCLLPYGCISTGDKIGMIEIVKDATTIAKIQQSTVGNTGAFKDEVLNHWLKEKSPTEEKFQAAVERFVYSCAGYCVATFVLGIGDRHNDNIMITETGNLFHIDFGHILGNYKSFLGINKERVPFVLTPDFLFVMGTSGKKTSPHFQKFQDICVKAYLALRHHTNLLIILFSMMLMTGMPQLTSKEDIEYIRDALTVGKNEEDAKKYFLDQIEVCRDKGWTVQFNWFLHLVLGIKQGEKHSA

| IC50 [nM] | Structure (SMILES) |
| --- | --- |
| < 800 | CNC(=O)c1nn(-c2ccccc2Cl)c2c1CCc1nc(NC(C)=O)sc1-2 |
| < 800 | CC(=O)Nc1nc2c(s1)-c1c(c(-c3ccoc3)nn1-c1ccc(Cl)cc1)CC2 |
| < 800 | CC(=O)Nc1nc2c(s1)-c1c(cnn1-c1ccc(C(=O)Nc3nc4ccccc4[nH]3)cc1)CC2 |
| < 800 | CC(=O)Nc1nc2c(s1)-c1c(cnn1-c1ccc3ccccc3c1)CC2 |
| < 800 | COc1ccccc1-n1ncc2c1-c1sc(NC(C)=O)nc1C2 |
| < 800 | COCc1nn(-c2ccccc2)c2c1CCc1nc(NC(C)=O)sc1-2 |
| < 800 | CCCn1cc2c(n1)-c1sc(NC(C)=O)nc1CC2 |
| < 800 | CC(=O)Nc1nc2c(s1)-c1c(c([C@H]3CCCO3)nn1-c1ccccc1C(F)(F)F)CC2 |
| < 800 | CC(=O)Nc1nc2c(s1)-c1c(cnn1-c1ccccc1)CC2 |
| < 800 | CC(=O)Nc1nc2c(s1)-c1nn(C(N)=O)cc1CC2 |
| < 800 | CC(=O)Nc1nc2c(s1)-c1nc(COc3ccccc3Cl)ncc1CC2 |
| < 800 | CC(=O)Nc1nc2c(s1)-c1c(cnn1-c1ccc(C#N)cc1)CC2 |
| < 800 | CC(=O)Nc1nc2c(s1)-c1c(cnn1-c1ccc(CC(=O)N3CCC(N4CCNC4=O)CC3)cc1)CC2 |
| < 800 | CC(=O)Nc1nc2c(s1)-c1c(cnn1-c1ccc(C(=O)NCCn3ccnc3)cc1)CC2 |
| < 800 | CC(=O)Nc1nc2c(s1)-c1c(cnn1-c1ccc(F)cc1F)CC2 |
| < 800 | CC(=O)Nc1nc2c(s1)-c1c(cnn1C(N)=O)CC2 |
| < 800 | CC(=O)Nc1nc2c(s1)-c1nc(CCc3ccccc3)ncc1CC2 |
| < 800 | O=CNc1nc2c(s1)-c1c(cnn1-c1ccccc1)CC2 |
| < 800 | CC(=O)Nc1nc2c(s1)-c1c(cnn1-c1ccccc1F)CC2 |
